The values that follow come from article PMC3668096 (FEBS letters, 2012).

Molecules are shown by their SMILES.

Broadly, the IC50 is the concentration at which inhibition is half-maximal. The low end stands for greater potency in that assay, the high end for weaker potency in that assay.

One assay has as its target T1, MshA (Mycolicibacterium smegmatis, UniProt A0QQZ8).
T1 sequence (A0QQZ8 1-434): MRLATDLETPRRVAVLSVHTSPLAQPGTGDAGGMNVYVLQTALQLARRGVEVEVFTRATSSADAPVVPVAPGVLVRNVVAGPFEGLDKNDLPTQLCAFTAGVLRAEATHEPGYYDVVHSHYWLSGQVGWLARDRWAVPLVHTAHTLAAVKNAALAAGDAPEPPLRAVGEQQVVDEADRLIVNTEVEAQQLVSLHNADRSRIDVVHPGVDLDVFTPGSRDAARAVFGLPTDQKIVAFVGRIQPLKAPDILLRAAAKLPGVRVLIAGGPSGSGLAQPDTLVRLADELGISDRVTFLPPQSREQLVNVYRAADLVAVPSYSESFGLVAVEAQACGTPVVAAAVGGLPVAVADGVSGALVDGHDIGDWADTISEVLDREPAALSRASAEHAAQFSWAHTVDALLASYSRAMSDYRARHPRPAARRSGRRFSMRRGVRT
As to the kind of experiment: MshA glycosyltransferase assay. The following applies: 1 mM UDP-GlcNAc, 1 mM 1-L-inositol-1-phosphate. The class given is biochemical.

Another assay concerns the target B. subtilis BshA (Bacillus subtilis, UniProt P42982). As to the kind of experiment: HPLC detection of UDP release at […] nm. The class given is biochemical.

B. subtilis BshA, sequence (P42982 whole entry): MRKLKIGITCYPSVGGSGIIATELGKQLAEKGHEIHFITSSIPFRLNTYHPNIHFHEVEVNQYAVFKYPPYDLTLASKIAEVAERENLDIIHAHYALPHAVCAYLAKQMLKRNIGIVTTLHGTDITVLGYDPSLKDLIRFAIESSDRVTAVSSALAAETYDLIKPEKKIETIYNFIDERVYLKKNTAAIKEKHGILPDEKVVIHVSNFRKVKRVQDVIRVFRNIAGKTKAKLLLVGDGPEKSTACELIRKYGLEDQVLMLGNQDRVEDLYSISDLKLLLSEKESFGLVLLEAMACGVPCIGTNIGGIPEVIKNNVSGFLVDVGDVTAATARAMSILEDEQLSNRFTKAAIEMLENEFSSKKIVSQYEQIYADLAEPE

Turning to `CC(=O)N[C@@H](CS)C(=O)NC1[C@@H](O[C@@H]2[C@H](O)[C@H](O)[C@@H](O)[C@H](O)[C@H]2O)O[C@H](CO)[C@@H](O)[C@@H]1O` (stereo partly drawn) [MSH, mycothiol], on MshA (preincubated with MSH, feedback inhibition), the IC50 came to 3600 µM.

In turn, `N[C@@H](CS)C(=O)N[C@H]1[C@@H](O[C@@H](CC(=O)O)C(=O)O)O[C@H](CO)[C@@H](O)[C@@H]1O` [BSH, bacillithiol] registered an IC50 against B. subtilis BshA of 700 µM.

For `CC(=O)N[C@H]1[C@@H](OP(=O)(O)OP(=O)(O)OC[C@H](C=O)OC(C=O)n2ccc(=O)[nH]c2=O)O[C@H](CO)[C@@H](O)[C@@H]1O` (stereo partly drawn) [O-UDP-GlcNAc, 2’,3’-dialdehydo-UDP-N-acetylglucosamine], at MshA (preincubated with inhibitor), inhibition was half-maximal at 200 µM (IC50).
